In test [1] the target is PEX5-PEX14 complex (biotin-coupled PEX5 peptide, His-tagged T. brucei PEX14) (Trypanosoma brucei brucei, UniProt Q38CL4). As to the kind of experiment: biochemical. The format is binding. Conditions: 30 nM PEX5, 30 nM PEX14; quadruplicate; read-out: AlphaScreen EC50 [μM] (±SD). The text has this: (§1) The assay uses two types of beads: donor beads are coupled with streptavidin, and acceptor beads are coupled with an anti His-tag antibody. Upon excitation with light of a wavelength of 680 nm the donor beads produce reactive oxygen species that travel in solution only for a limited distance. If the acceptor beads are within that travel distance, it will absorb the reactive oxygen and emit light in the range of 520-620 nm. […] Thus, PEX5-PEX14 complex dissociation by a ligand caused decrease in light emission as the donor and acceptor beads were separated. Typically, we used 30 nM PEX5, 30 nM PEX14 and bead concentrations of 5 μg/mL. The PEX5-PEX14 complex was incubated with varying concentrations of inhibitor for 1 hour. Next, the beads were added and the system allowed to equilibrate for another hour. The raw data were fitted to four parameter sigmoidal curves by Origin software and EC50 values calculated. Each measurement was performed in quadruplicate and every experiment was accompanied with blank and reference samples (using non-biotynylated PEX5 peptide as a binding competitor).
Sequence of PEX5-PEX14 complex (biotin-coupled PEX5 peptide, His-tagged T. brucei PEX14) (Trypanosoma brucei brucei, UniProt Q38CL4) (Q38CL4 1-366, one chain of several): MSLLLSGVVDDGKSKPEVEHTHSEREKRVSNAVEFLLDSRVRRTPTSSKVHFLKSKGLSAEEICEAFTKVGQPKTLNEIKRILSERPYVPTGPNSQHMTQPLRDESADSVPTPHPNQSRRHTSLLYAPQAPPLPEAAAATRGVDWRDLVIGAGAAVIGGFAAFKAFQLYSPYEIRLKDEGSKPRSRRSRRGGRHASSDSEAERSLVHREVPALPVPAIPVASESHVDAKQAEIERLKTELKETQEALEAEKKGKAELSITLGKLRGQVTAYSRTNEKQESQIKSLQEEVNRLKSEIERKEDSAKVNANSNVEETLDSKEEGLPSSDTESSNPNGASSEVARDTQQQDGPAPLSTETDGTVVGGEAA
Background: Alpha assays give light when donor and acceptor beads are brought close together.

Test [2] deals with T. brucei brucei bloodstream form parasites (strain Lister 427). As to the kind of experiment: Antitrypanosomal activity assay (resazurin; FIG. 2). It counts as cell-based. Conditions: Trypanosoma brucei; 66 h + 6 h resazurin. Here is the method: (A) The trypanosoma cell count and growth were evaluated at different doses of compounds of the invention.
Antitrypanosomal activity was tested on T. brucei brucei bloodstream from parasites (strain—Lister 427, VATMITat 1.2). Stock solutions of compounds (50 mM) were prepared in DMSO. Two fold serial dilutions of each compound (10 wells in each row) were prepared in 96 well plates in HMI111 medium (100 μl/well; quadruplicates; cf. also Hirumi et al., J. Parasitol. 75 (1989), 985-989). One well without compound, and one well with media alone were included in each row. […] The plates were incubated for 66 hours at 37° C. in the incubator with 5% CO2. 20 μl resazurin (Sigma, 0.125 mg/ml in Hanks Balanced Salt Solution) was added to all wells and the plate was further incubated for 6 hours. Change in color of resazurin (blue to pink) by living cells was measured with a 96 well plate reader (excitation at 530 nm, emission at 585 nm, filter cut-off: 570 nm). Percent inhibition values were calculated by setting the well without compound to “0% inhibition”.

In test [3] the test system is PEX5-PEX14 complex (biotin-coupled PEX5 peptide, His-tagged T. brucei PEX14). The test is described as follows: biochemical. It counts as binding. Conditions: 30 nM PEX5, 30 nM PEX14; quadruplicate; read-out: AlphaScreen EC50 [μM] (±SD).
Excerpt: as §1

Structures are written as SMILES.

As usually defined, the EC50 is the concentration at which the effect is half-maximal. The term IC50 denotes the midpoint of a concentration-inhibition curve. For `O=C(NCc1cccc2ccccc12)c1nn(CCO)c2c1CN(Cc1cccc(-c3ccccc3)c1)CC2` [Compound 39], the EC50 in test [1] was determined as 12.7 µM. Also, the half-inhibitory concentration (IC50) in test [2] was found to be 5.5 µM.

As for `O=C(NCc1cccc2ccccc12)c1nn(CCO)c2c1CN(Cc1cccc3cccnc13)CC2` [Compound 45], the EC50 in test [1] came to 53.8 µM. In test [2], the IC50 is 10.7 µM.

Take `O=C(NCc1cccc2ccccc12)c1nn(CCO)c2c1CN(Cc1ccc(C(F)(F)F)cc1)CC2` [Compound 48]: the EC50 in test [1] is 34 µM. For the same molecule, the IC50 in test [2] was determined as 5.4 µM.

For `CCCc1ccc(CN2CCc3c(c(C(=O)NCc4cccc5ccccc45)nn3CCO)C2)cc1` [Compound 49], in test [1], the EC50 was determined as 32.5 µM. For the same molecule, the IC50 in test [2] stood at 2.7 µM.

For `O=C(NCc1cccc2ccccc12)c1nn(CCO)c2c1CN(Cc1cccc3cc[nH]c13)CC2` [Compound 53], the concentration giving a half-maximal response (EC50) in test [1] is 39.8 µM. Besides, the IC50 in test [2] was found to be 6.8 µM.

On to `O=C(NCc1cccc2ccccc12)c1nn(CCO)c2c1CN(Cc1cccc3c1OCO3)CC2` [Compound 54], for which, in test [1], the concentration giving a half-maximal response (EC50) was determined as 84.4 µM. Besides, the IC50 in test [2] was found to be 19 µM.

For the molecule `COc1ccc(CN2CCc3c(c(C(=O)NCc4cccc5[nH]ccc45)nn3CCO)C2)c2ccccc12` [Compound 60], in test [1], the EC50 came out at 20.2 µM. Moreover, the IC50 in test [2] stood at 5.6 µM.

With `COc1ccc(CN2CCc3c(c(C(=O)NCc4cccc5cccnc45)nn3CCO)C2)c2ccccc12` [Compound 61], the EC50 in test [1] came out at 24.1 µM. Besides, the IC50 in test [2] was 7 µM.

As to `COc1ccc(CN2CCc3c(c(C(=O)NCc4cccc(C)c4)nn3CCO)C2)c2ccccc12` [Compound 62], the EC50 in test [1] was 38.1 µM. The IC50 in test [2] was 4.5 µM.

Turning to `COc1ccc(CN2CCc3nn(CCO)c(C(=O)NCc4cccc5ccccc45)c3C2)c2ccccc12` [Compound 90], in test [1], the EC50 turned out to be 66.1 µM. Besides, in test [2], the IC50 turned out to be 3.3 µM.

Regarding `COc1ccc(CN2CCc3nn4c(c3C2)C(=O)N(Cc2cccc3ccccc23)CC4)c2ccccc12` [Compound 91], the EC50 in test [1] is 19.2 µM. For the same molecule, the half-inhibitory concentration (IC50) in test [2] was determined as 6.4 µM.

`COc1ccc(CN2CCc3c(c(C(=O)NCc4cccc5ccccc45)nn3CCNC(=N)N)C2)c2ccccc12` [Compound 94]: the EC50 in test [1] was 1.4 µM. The half-maximal inhibitory concentration (IC50) in test [2] is 0.74 µM.

For the molecule `COc1ccc(CN2CCc3c(c(C(=O)NCc4cccc5ccccc45)nn3CCN)C2)c2c1CCCC2` [Compound 100], the EC50 in test [1] turned out to be 4.62 µM. The IC50 in test [2] stood at 0.05 µM.

Turning to `NCCn1nc(C(=O)NCc2cccc3ccccc23)c2c1CCN(Cc1ccc(Cl)cc1)C2` [Compound 103], the EC50 in test [1] is 10 µM. Further, the half-inhibitory concentration (IC50) in test [2] worked out at 0.18 µM.

`COc1ccc(CN2CCc3c(c(C(=O)NCc4cccc5ccccc45)nn3CC(O)CN)C2)c2ccccc12` (stereo not shown) [Compound 104]: in test [1], the EC50 amounted to 10.6 µM. Further, in test [2], the IC50 turned out to be 0.2 µM.

For the molecule `NCCn1nc(C(=O)NCc2cccc3ccccc23)c2c1CCN(Cc1ccc(Cl)c(Cl)c1)C2` [Compound 105], the EC50 in test [1] turned out to be 11.6 µM. In test [2], the IC50 is 0.34 µM.

Regarding `COc1ccc2c(CN3CCc4c(c(C(=O)NCc5cccc6ccccc56)nn4CCO)C3)c[nH]c2c1` [Compound 106], in test [1], the EC50 was 25 µM. For the same molecule, the 50% inhibitory concentration (IC50) in test [2] is 4.6 µM.

On to `COc1ccc(CN2CCc3c(c(C(=O)NCc4cc(F)cc5ccccc45)nn3CCO)C2)c2ccccc12` [Compound 107], for which the EC50 in test [1] is 28.7 µM. Besides, the IC50 in test [2] is 2.9 µM.

Take `COc1ccc2[nH]c(CN3CCc4c(c(C(=O)NCc5cccc6ccccc56)nn4CCO)C3)cc2c1` [Compound 110]: the concentration for a half-maximal effect (EC50) in test [1] is 43.8 µM. The IC50 in test [2] worked out at 2.6 µM.

For `COc1ccc2c(OC)ccc(CN3CCc4c(c(C(=O)NCc5cccc6ccccc56)nn4CCO)C3)c2c1` [Compound 111], the 50% effective concentration (EC50) in test [3] came to 52.9 µM.

Regarding `COc1ccc2cc(CN3CCc4c(c(C(=O)NCc5cccc6ccccc56)nn4CCO)C3)ccc2c1` [Compound 114], the EC50 in test [1] was 121 µM. In addition, the concentration for half-maximal inhibition (IC50) in test [2] was 3.9 µM.

On to `O=C(NCc1cccc2ccccc12)c1nn(CCO)c2c1CN(Cc1ccc(F)c3ccccc13)CC2` [Compound 115], for which the EC50 in test [1] is 121 µM. The IC50 in test [2] is 5.9 µM.
